Laboratory results as given in patent publication US12297179B2, “Crystalline and salt forms of an organic compound and pharmaceutical compositions thereof” (Servier Pharmaceuticals LLC, priority 2018, dated 2025).
Where a name gives a salt, the structure may show the parent alone. Marks after values point to notes of the source that are not given here. Each block holds one molecule with its values, some of them ahead of it.

How the values were obtained:
[1] = Kinetic solubility in bio-relevant media (SGF/FaSSGF, FaSSIF, FeSSIF) and H2O at 37° C., with pH of supernatant; assay type: physicochemical; conditions: for solubility at 15 min / solubility at 30 min / solubility at 1 h / solubility at 2 h / solubility at 24 h: 37 °C, thermodynamic from solid; for Solubility: 37° C.
Procedure: (§1) Weigh 100 mg of sodium chloride into a 50-mL volumetric flask. Add appropriate volume of purified water and sonicate until all solids are completely dissolved. Add sufficient purified water closely to the target volume and adjust to pH 1.6. Weigh 3 mg of FaSSIF/FeSSIF/FaSSGF powder into the volumetric flask and sonicate until the powder is completely dissolved. Dilute to target volume with purified water and mix well.
as §1, with “0.170 g of monobasic sodium phosphate, 0.021 g of sodium hydroxide and 0.31 g” for “100 mg”, “6.5.” for “1.6.”, “110” for “3”
as §1, with “0.41 mL of glacial acetic acid, 0.202 g of sodium hydroxide and 0.594 g” for “100 mg”, “5.0.” for “1.6.”, “560” for “3”
An Agilent 1260 HPLC with DAD detector was utilized and detailed chromatographic conditions for solubility analysis are listed in Table 5.
Kinetic solubility of Tris salt Form A and free acid Form D were measured in three bio-relevant media (SGF, FaSSIF and FeSSIF) at 37° C. In details, ˜30 mg solids were suspended into 4.0 mL of each medium initially and equilibrated via shaking (500 rpm) at 37° C. Approximately 0.8 mL suspension was extracted at each time point of 15/30/60/120 mins and 24 hrs. The supernatant and precipitate were separated by centrifugation (10000 rpm, ˜3 mins) followed by concentration (HPLC) and pH measurement for supernatant and the corresponding solid forms were characterized by XRPD.
Due to the thermodynamic stability of Tris salt Form C, further evaluation was conducted, including kinetic solubility in three bio-relevant media (FaSSGF/FaSSF/FeSSIF) and H2O at 37° C.

[2] = Hygroscopicity by dynamic vapor sorption (DVS); assay type: physicochemical
Procedure: DVS was measured via a SMS (Surface Measurement Systems) DVS Intrinsic. The relative humidity at 25° C. was calibrated against deliquescence point of LiCl, Mg(NO3)2 and KCl.

[3] = Thermodynamic stability: slurry competition between Tris salt Forms A and C; assay type: physicochemical; conditions: DMSO/EtOH (1:8, v/v) and EtOH, 5° C./RT/50° C./75° C., 7 days
Procedure: The thermodynamic stability relationship between Tris salt Forms A and C was investigated via slurry competition experiments in 2 process related solvent systems, DMSO/EtOH (1:8, v/v) and EtOH at 4 temperature conditions (5° C./RT/50° C./75° C.). Two stages of slurry competition experiments were conducted, of which the first stage included temperature as a variable and the second stage used newly opened reagents to minimize the effect of absorbed moisture. Typical experimental procedures are described below.
About 5-10 mg of crystalline Tris salt Form C was first dissolved in ˜1.0 mL of corresponding solvent to form nearly saturated solution under corresponding temperature (equilibrating method: stirring magnetically, ˜1000 rpm, ˜2 hrs). Then ˜15 mg of each form (crystalline Tris salt Forms A and C) was physically mixed, followed by addition of the nearly saturated solution to form a suspension. The suspensions were then stirred (˜1000 rpm) under corresponding temperature for 7 days (a small amount of solids were sampled at 2 day point in the second stage experiments). The obtained solids were isolated via centrifugation (10000 rpm, 2 mins) and tested by XRPD to confirm the form.

[4] = Sprague Dawley, rat, in vivo, po, 100 mg/kg
Procedure: The objective of the pharmacokinetic (PK) studies was to determine the pharmacokinetics of the different forms of Compound 1 in intact Sprague Dawley rats after oral (PO) administration. […] Food and water were available to all animals ad libitum and Compound 1 or Tris salt Form C of Compound was dosed orally at 100 mg/kg (100 mL/kg). Approximately 110 μL of whole blood was collected via tail vein bleeding predose and at 0.083, 0.25, 0.5, 1, 2, 4, 8, 12 and 24 hours postdose into tubes containing the anticoagulant K2EDTA, processed to obtain plasma, and stored at approximately −70° C. until analysis. Concentrations of the active pharmaceutical ingredient in plasma samples were quantified using a nonvalidated liquid chromatography with tandem mass spectrometry (LC-MS/MS) method. Pharmacokinetic analysis of the individual plasma concentration data was performed using WinNonlin© (Version 6.4; Pharsight Corporation, Mountain View, CA, USA). Pharmacokinetic parameters were estimated using a noncompartmental extravascular models method. Area under the concentration-time curve (AUC) was calculated using the linear trapezoidal rule. […] Concentrations that were <80% of the LLOQ were designated as BLQ.

- solubility at 15 min ([1]; FaSSIF, pH 6.5, fassif, Table 12, FaSSIF, 15 min): 390 µg/mL
- solubility at 30 min ([1]; FaSSIF, pH 6.5, fassif, Table 12, FaSSIF, 30 min): 320 µg/mL
- solubility at 1 h ([1]; FaSSIF, pH 6.5, fassif, Table 12, FaSSIF, 1 h): 250 µg/mL
- solubility at 2 h ([1]; FaSSIF, pH 6.5, fassif, Table 12, FaSSIF, 2 h): 220 µg/mL
- solubility at 24 h ([1]; FaSSIF, pH 6.5, fassif, Table 12, FaSSIF, 24 h): 170 µg/mL
- solubility at 15 min ([1]; FeSSIF, pH 5, fessif, Table 12, FeSSIF, 15 min): 330 µg/mL
- solubility at 30 min ([1]; FeSSIF, pH 5, fessif, Table 12, FeSSIF, 30 min): 270 µg/mL
- solubility at 1 h ([1]; FeSSIF, pH 5, fessif, Table 12, FeSSIF, 1 h): 50 µg/mL
- solubility at 2 h ([1]; FeSSIF, pH 5, fessif, Table 12, FeSSIF, 2 h): 40 µg/mL
- solubility at 24 h ([1]; FeSSIF, pH 5, fessif, Table 12, FeSSIF, 24 h): 40 µg/mL
- Solubility ([1]; Table 12, FaSSGF, 15 min): <LOD
- Solubility ([1]; Table 12, FaSSGF, 30 min): <LOD
- Solubility ([1]; Table 12, FaSSGF, 1 h): <LOD
- Solubility ([1]; Table 12, FaSSGF, 2 h): <LOD
- Solubility ([1]; Table 12, FaSSGF, 24 h): <LOD
- pH ([1]; Table 12, FaSSGF, 15 min): 3.0
- pH ([1]; Table 12, FaSSGF, 30 min): 3.1
- pH ([1]; Table 12, FaSSGF, 1 h): 4.0
- pH ([1]; Table 12, FaSSGF, 2 h): 4.1
- pH ([1]; Table 12, FaSSGF, 24 h): 3.1
- pH ([1]; Table 12, FaSSIF, 15 min): 7.7
- pH ([1]; Table 12, FaSSIF, 30 min): 7.8
- pH ([1]; Table 12, FaSSIF, 1 h): 7.8
- pH ([1]; Table 12, FaSSIF, 2 h): 7.8
- pH ([1]; Table 12, FaSSIF, 24 h): 7.9
- pH ([1]; Table 12, FeSSIF, 15 min): 5.5*
- pH ([1]; Table 12, FeSSIF, 30 min): 5.6*
- pH ([1]; Table 12, FeSSIF, 1 h): 5.6
- pH ([1]; Table 12, FeSSIF, 2 h): 5.6
- pH ([1]; Table 12, FeSSIF, 24 h): 5.6
- pH ([1]; Table 12, H2O, 15 min): 8.9
- pH ([1]; Table 12, H2O, 30 min): 9.0
- pH ([1]; Table 12, H2O, 1 h): 9.0
- pH ([1]; Table 12, H2O, 2 h): 9.0
- pH ([1]; Table 12, H2O, 24 h): 9.2
- solubility at 15 min ([1]; water, Table 12, H2O, 15 min): 810 µg/mL
- solubility at 30 min ([1]; water, Table 12, H2O, 30 min): 820 µg/mL
- solubility at 1 h ([1]; water, Table 12, H2O, 1 h): 720 µg/mL
- solubility at 2 h ([1]; water, Table 12, H2O, 2 h): 750 µg/mL
- solubility at 24 h ([1]; water, Table 12, H2O, 24 h): 400 µg/mL
- solid form after the DVS test (XRPD) ([2]; 25° C.): remained as Tris salt Form C
- moisture uptake ([2]; DVS, humidity varied from 0% RH to 80% RH at 25° C.): ~0.04 wt %
- form after slurry competition (XRPD), thermodynamic stability [3]: thermodynamically more stable
Compound: Cc1ccccc1-c1ccc(-c2cc(C(=O)O)c3c(c2)nnn3C)cc1 [Tris salt Form C]

- Cmax, fold higher than best free acid batch Lot B [4]: ~1.5 fold
- Tmax, fold lower than best free acid batch Lot B [4]: ~2 fold
Compound: Cc1ccccc1-c1ccc(-c2cc(C(=O)O)c3c(c2)nnn3C)cc1 [Tris salt, 1-methyl-5-(2′-methyl-[1,1′-biphenyl]-yl)-1H-benzo[d][1,2,3]triazole-7-carboxylate Tris salt]
